# Records with an inconclusive call do not appear. Calls of active or inactive are those of the source. The rule behind the calls is not given here.
# Molecular target: Zinc finger protein mex-5 (Caenorhabditis elegans) (UniProt Q9XUB2)
# Assay: MEX-5 RNA-binding inhibition confirmation – biochemical, C. elegans, fluorescence polarization, dose retest (AID 449745);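 note: potency is for blocking Mex-5 binding to labeled TCR2 RNA like unlabeled competitor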
# Settings: Mex-5 / TCR-2 RNA binding
# Zinc finger protein mex-5 (Caenorhabditis elegans), sequence (Q9XUB2 whole entry, looked up): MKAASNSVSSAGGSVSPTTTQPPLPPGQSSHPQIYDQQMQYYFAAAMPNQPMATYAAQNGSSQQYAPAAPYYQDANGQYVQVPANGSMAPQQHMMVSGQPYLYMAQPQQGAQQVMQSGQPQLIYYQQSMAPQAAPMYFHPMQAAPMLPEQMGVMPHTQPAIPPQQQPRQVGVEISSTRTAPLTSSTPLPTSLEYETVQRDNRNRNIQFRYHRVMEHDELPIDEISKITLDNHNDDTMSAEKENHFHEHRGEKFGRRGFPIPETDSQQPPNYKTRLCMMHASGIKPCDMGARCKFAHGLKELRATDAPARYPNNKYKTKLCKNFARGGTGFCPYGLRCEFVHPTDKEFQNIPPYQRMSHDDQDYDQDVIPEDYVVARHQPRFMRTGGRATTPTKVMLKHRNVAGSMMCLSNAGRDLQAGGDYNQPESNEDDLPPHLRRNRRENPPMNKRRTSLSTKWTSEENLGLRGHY
row,Structure (SMILES),AC50
1,O=C(O)CCCCCN1C(=O)C(O)=C(C(=O)/C=C/c2ccccc2)C1c1ccccc1[N+](=O)[O-] (stereo not given),> 38 µM (inactive)
2,Brc1ccc(C2=CC(c3cccs3)n3ncnc3N2)cc1 (stereo not given),15.8 µM
3,O=C(N/N=C/c1sc(=O)[nH]c1-[n+]1ccccc1)c1ccccc1[O-],30.2 µM
4,Cc1ccc(C(=O)O)cc1N1C(=O)c2cccc3c([N+](=O)[O-])ccc(c23)C1=O,25.6 µM
5,O=C(O)CCN1C(=O)/C(=C\c2ccc(-c3nc4ccccc4s3)o2)SC1=S,3.89 µM
6,C[n+]1c2ccccc2nc2ccc(NCCO)cc21,30.6 µM
7,O=c1[nH][nH]c2cc(=O)n(-c3cccc(C(F)(F)F)c3)nc12,20.3 µM
8,CCOC(=O)c1ccc(NC(=O)C(=O)NCc2ccc(/C=C(/C#N)C(=O)NCCOC)o2)cc1,> 38 µM (inactive)
9,CN1C(=O)/C(=C/c2ccco2)SC1=Nc1cccc(C(=O)O)c1,> 38 µM (inactive)
10,O=C1NC(=O)N(c2ccccc2)C(=O)/C1=C/c1ccc([N+](=O)[O-])s1,23.7 µM
11,CCc1nnc(NS(=O)(=O)c2ccc(N=Cc3c(O)n(-c4ccc(Cl)cc4)c(=O)[nH]c3=O)cc2)s1,> 38 µM (inactive)
12,Cc1cc(C(=O)NNC(=O)CCCCC(=O)NNC(=O)c2cc(C)[nH]n2)n[nH]1,< 0.3 µM
13,CCOC(=O)/C(C#N)=C\c1ccc(N2CCN(C/C=C/c3ccccc3)CC2)cc1,7.9 µM
14,O=C(O)c1cc(-c2ccc(/C=c3\sc4nc5ccc(Br)cc5n4c3=O)o2)ccc1Cl,5.15 µM
15,CCc1cccc2cc3c(N)c(C(=O)Nc4ccc(S(=O)(=O)N5CCCC5)cc4)sc3nc12,8.06 µM
16,C#CCN1C(=O)S/C(=C\c2ccc(-c3ccc(Cl)c(C(=O)O)c3)o2)C1=O,> 38 µM (inactive)
17,CC1=Nc2cccc3cccc(c23)N1C,> 38 µM (inactive)
18,Oc1ccc(N=Nc2nccs2)c(O)c1,38.3 µM
19,CCOc1ccc2nc(N3CCCN(C(=O)Nc4ccccc4C)CC3)c(C#N)cc2c1,22.8 µM
20,CC(C)C1Nc2ccc(C(=O)O)cc2C2C=CCC21 (stereo not given),> 38 µM (inactive)
21,CCc1ccc(N2C(=O)NC(=O)/C(=C/c3cccn3CCOc3ccc(C(C)CC)cc3)C2=O)cc1 (stereo not given),> 38 µM (inactive)
22,O=C(CN1C(=O)/C(=C/c2ccco2)SC1=S)Nc1ccc(C(=O)O)c(O)c1,24.5 µM
23,N=c1c(C(=O)NCC2CCCO2)cc2c(=O)n3ccccc3nc2n1Cc1ccc(Cl)cc1 (stereo not given),> 38 µM (inactive)
24,CCOC(=O)c1cc(C#N)c(SCC(N)=O)[nH]c1=O,> 38 µM (inactive)
25,C=C1c2cccc(O)c2C(O)=C2C(=O)[C@]3(O)C(O)=C(C(N)=O)C(=O)[C@@H](N(C)C)[C@@H]3[C@@H](O)[C@H]12,17.7 µM

row,Structure (SMILES),AC50
1,N#CC1=C(N)N2C(=C(C#N)C1c1ccccc1)Sc1ccccc12 (stereo not given),5.23 µM
2,COc1ccc(CN2C(=O)NC(=O)/C(=C\c3ccco3)C2=O)cc1,38.7 µM
3,CC1(C)CC(=O)C2=C(C1)OC(N)=C(C#N)C2c1ccccc1[N+](=O)[O-] (stereo not given),> 38 µM (inactive)
4,COc1ccc(/C=C2\SC(=O)NC2=S)cc1OC,20 µM
5,COc1cccc(CN2C(=O)c3cccc(N)c3C2=O)c1,32 µM
6,O=c1[nH]c(/C=C/c2cccc3ccccc23)nc2ccccc12,> 38 µM (inactive)
7,COc1ccc2c(c1)c1nc3ccccc3nc1n2Cc1ccc(OC(C)C)c(OC)c1,24.3 µM
8,COc1ccc(C(=O)N2C(=S)NC(=O)/C2=C\c2ccc(C)cc2)cc1,> 38 µM (inactive)
9,CCc1cc(-c2n[nH]c(CCC(=O)O)c2-c2nc3ccccc3n2C)c(O)cc1O,12.1 µM
10,O=c1cc2c(=O)oc3cc(O)c(O)oc3c2c(O)c1O,3 µM
11,O=C1OC(/C(=C\Nc2cc(Cl)ccc2O)[N+](=O)[O-])c2ccccc21 (stereo not given),12.4 µM
12,COc1ccc(/C=C2\C(=O)NC(=S)N2C(=O)c2ccc(C)cc2)cc1,> 38 µM (inactive)
13,O=S(=O)(Nc1ccc(O)c(NS(=O)(=O)c2ccccc2)c1)c1ccccc1,6.92 µM
14,Cc1nc2c3ccccc3nc(NNC(=O)CCC(=O)NC(C)C)n2n1,< 0.3 µM
15,CCCCCCNC(=O)C(C#N)c1nc2ccccc2nc1N1CCOCC1 (stereo not given),13.3 µM
16,CC(=O)Nc1ccc2cc3ccc(NC(C)=O)cc3nc2c1,10.9 µM
17,O=C(Cc1cccs1)Nc1nnc(SCc2ccc(Br)cc2)s1,> 38 µM (inactive)
18,CCOc1cc(Br)c(/C=C2/C(=O)N(C)C(=S)N2CC(=O)OC)cc1OC,> 38 µM (inactive)
19,O=S(=O)(O)c1cccc2c(N=Nc3ccc(O)c4ncccc34)cccc12,3.04 µM
20,CC[n+]1c(/C=C/C=C/c2ccc(N(C)C)cc2)sc2ccccc21,18.8 µM
21,CCCCOc1ccc(-c2cc(C(F)(F)F)c(C#N)c(SCC(=O)O)n2)cc1,11.8 µM
22,S=c1[nH]cnc2sc(Nc3ccccc3)nc12,27.4 µM
23,COC(=O)/C=C1/S/C(=N/NC(=O)c2ccc(Cl)cc2Cl)NC1=O,22.4 µM
24,Nc1cc2c3c(cccc3c1)C(=O)N(CCN1CCCC1)C2=O,16 µM
25,COc1ccc(CC(=O)NNC(=O)c2cnccn2)cc1,15.5 µM

row,Structure (SMILES),AC50
1,O=[N+]([O-])c1ccc(O)c(C=Nc2ccc3c(c2)OCCO3)c1,> 38 µM (inactive)
2,COc1cc(N2CCCC2)c(OC)cc1/C=C(/C#N)c1cccc(Br)c1,10.3 µM
3,COc1cccc(N=Nc2c(N)[nH][nH]c2=O)c1,10.3 µM
4,O=c1[nH]c(=O)n(Cc2ccccc2)c(O)c1/C=C1\C=Nc2ccccc21,29.8 µM
5,Cc1ccc(N2C(=O)NC(=O)/C(=C\c3ccc([N+](=O)[O-])o3)C2=O)cc1,6.08 µM
6,Cc1cccc2cc3c(N)c(C(=O)N4CCCc5ccccc54)sc3nc12,19.9 µM
7,COc1ccc(N2C(=O)NC(=O)/C(=C\c3ccc([N+](=O)[O-])s3)C2=O)cc1,18.7 µM
8,CN(C)c1ccc(C(c2nnnn2CCOC(=O)Nc2ccc(Cl)cc2)N2CCOCC2)cc1 (stereo not given),> 38 µM (inactive)
9,O=C(C[n+]1ccc(C(=O)N/N=C/c2ccc(OCc3ccccc3)cc2)cc1)c1ccccc1,18.7 µM
10,COc1ccc(Cn2c3ccc(OC)cc3c3nc4ccccc4nc32)cc1,22.9 µM
11,CC1=NOC(=O)/C1=C/c1ccc2c(c1)OCO2,> 38 µM (inactive)
12,COc1ccc(/C=C/C(=O)N/C(=C\c2ccco2)C(=O)NCCc2nc3ccccc3[nH]2)cc1,> 38 µM (inactive)
13,CCn1c(SCc2nc3sc(C(=O)O)c(C)c3c(=O)[nH]2)nc2ccccc21,13 µM
14,O=c1c2ccccc2c(C=Nc2ccc(O)cc2)c(O)n1-c1nccs1,> 38 µM (inactive)
15,Cc1cc(=O)n2[nH]c(=O)c(N=Nc3ccccc3)c2[nH]1,< 0.3 µM
16,O=C(O)c1c2c(nc3ccccc13)/C(=C/c1ccc(O)cc1)CC2,36.4 µM
17,Cc1ccc(O)c(N=CC2=C(O)c3ccccc3C2=O)c1,24.8 µM
18,Cc1nc2ccc3nc(NC(=O)c4ccc5c(c4)OCCO5)sc3c2s1,> 38 µM (inactive)
19,COc1ccc(N=Nc2nc3ccc(Br)cc3n2C)cc1,34.9 µM
20,Cc1cc(C)cc(NC(=O)N(C)Cc2ccccc2)c1,> 38 µM (inactive)
21,Cc1cc(/C=C2\C(=O)NC(=O)N(Cc3ccccc3)C2=O)c(C)n1-c1ccc(Cl)c(C(=O)O)c1,33.2 µM
22,O=C(O)/C=C/C(=O)NNc1ncnc2ccccc12,22.2 µM
23,O=C(NNC(=O)c1ccccc1O)c1ccc(S(=O)(=O)Nc2ccccc2)cc1,11.4 µM
24,O=C1CS/C(=N\NC(=O)c2ccccc2)N1,12 µM
25,CCOC(=O)c1c(/N=C/c2ccc(OC)cc2O)sc2c1CCN(C)C2,> 38 µM (inactive)
